Literature values in patent US20050159377A1, “Methods of modulating activity of prokaryotic ribosomes” (SmithKline Beecham Corporation, priority 2000, published 2005).

Test system: 50S ribosomal subunit

With `O=C(N[C@H](CO)[C@H](O)c1ccc([N+](=O)[O-])cc1)C(Cl)Cl` [chloramphenicol] as the molecule, how does the “competition with pleuromutilin for binding” value read?
Its value is “weakly compete”.
